This note sets out measurements from patent publication US11718622B2, “Heterocyclic adenosine receptor antagonists” (Exelixis, Inc., priority 2020, dated 2023).

Experiment [1] has as its target Adenosine A2a (ADORA2A) receptor (Homo sapiens (Human), UniProt P29274). The experiment in a line: ADORA2A Receptor Binding Assay. To be noted: radioligand binding, membrane stock. The method, boiled down:
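Test compounds incubated with A2a receptor membranes and a ³H-labelled radioligand for 2 hours at room temperature, then filtered through PEI-presoaked GF/C plates and washed. Filter-bound ³H counted by scintillation; % inhibition calculated from background-subtracted signal relative to high control.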

Experiment [2] addresses Adenosine A2B (ADORA2B) receptor (Homo sapiens (Human), UniProt P29275). Put plainly: ADORA2B Receptor Binding Assay. To be noted: radioligand binding, membrane stock. The method, boiled down: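 Radioligand competition binding on human A2B receptor membranes, 1 h at room temperature, then filtration through BSA-presoaked GF/C filters and ³H counting by scintillation. Inhibition expressed as % of high control after background subtraction.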

Sequence of Adenosine A2a (ADORA2A) receptor (P29274 whole entry): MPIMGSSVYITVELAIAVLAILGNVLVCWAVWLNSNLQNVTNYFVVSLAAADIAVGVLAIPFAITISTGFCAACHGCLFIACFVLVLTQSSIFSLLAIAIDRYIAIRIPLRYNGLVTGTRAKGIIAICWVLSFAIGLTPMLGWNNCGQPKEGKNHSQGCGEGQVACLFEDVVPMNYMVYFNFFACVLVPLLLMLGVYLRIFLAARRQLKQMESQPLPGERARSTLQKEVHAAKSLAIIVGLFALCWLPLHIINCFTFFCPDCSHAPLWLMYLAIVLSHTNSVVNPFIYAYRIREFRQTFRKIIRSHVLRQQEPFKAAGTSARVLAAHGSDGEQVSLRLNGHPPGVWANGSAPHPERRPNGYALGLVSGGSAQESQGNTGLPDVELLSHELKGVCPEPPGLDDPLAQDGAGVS
Sequence of Adenosine A2B (ADORA2B) receptor (P29275 whole entry): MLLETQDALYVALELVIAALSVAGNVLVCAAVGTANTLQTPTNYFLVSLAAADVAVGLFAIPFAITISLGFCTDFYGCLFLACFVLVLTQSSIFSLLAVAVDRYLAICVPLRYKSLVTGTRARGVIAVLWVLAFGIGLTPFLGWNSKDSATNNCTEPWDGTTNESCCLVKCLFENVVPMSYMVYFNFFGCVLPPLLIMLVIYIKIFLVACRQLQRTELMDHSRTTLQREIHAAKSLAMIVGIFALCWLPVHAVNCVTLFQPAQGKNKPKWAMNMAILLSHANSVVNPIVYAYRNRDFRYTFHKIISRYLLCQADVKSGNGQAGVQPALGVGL

For `COc1ccc(-c2nc(N)cc3nc(C)nn23)cc1` [Compound 115, 5-(4-methoxyphenyl)-2-methyl-[1,2,4]triazolo[1,5-c]pyrimidin-7-amine], the concentration for half-maximal inhibition (IC50) is 100 to 1000 nM in experiment [1] and above 1000 nM in experiment [2].
For the compound `Cc1nc2cc(NC(=O)C3CC3)nc(-c3ccc(S(=O)(=O)N(C)C)cc3)n2n1` [Compound 116, N-[5-[4-(dimethylsulfamoyl)phenyl]-2-methyl-[1,2,4]triazolo[1,5-c]pyrimidin-7-yl]cyclopropanecarboxamide], the concentration for half-maximal inhibition (IC50) in experiment [1] and in experiment [2] was above 1000 nM in each case.
As for `CC(=O)Nc1cc2nc(C)nn2c(-c2ccc(S(=O)(=O)N(C)C)cc2)n1` [Compound 117, N-[5-[4-(dimethylsulfamoyl)phenyl]-2-methyl-[1,2,4]triazolo[1,5-c]pyrimidin-7-yl]acetamide], the half-inhibitory concentration (IC50) in experiment [1] and in experiment [2] was above 1000 nM each time.
Turning to `Cc1nc2cc(NC(=O)OC(C)(C)C)nc(-c3ccc(S(=O)(=O)N(C)C)cc3)n2n1` [Compound 118, tert-butyl N-[5-[4-(dimethylsulfamoyl)phenyl]-2-methyl-[1,2,4]triazolo[1,5-c]pyrimidin-7-yl]carbamate], the IC50 in experiment [1] and in experiment [2] was above 1000 nM throughout.
As to `Cc1nc2cc(N)nc(-c3ccc(S(=O)(=O)N(C)C)cc3)n2n1` [Compound 119, 4-(7-amino-2-methyl-[1,2,4]triazolo[1,5-c]pyrimidin-5-yl)-N,N-dimethylbenzenesulfonamide], the IC50 in experiment [1] and in experiment [2] was above 1000 nM throughout.
For the compound `Cc1nc2c(nc(-c3ccc(C)o3)n3nc(C(C)C)nc23)[nH]1` [Compound 120, 2-methyl-5-(5-methylfuran-2-yl)-8-propan-2-yl-3H-[1,2,4]triazolo[5,1-f]purine], the results for the half-maximal inhibitory concentration (IC50) in experiment [1] and in experiment [2] were below 10 nM and 10 to 100 nM, respectively.
On the same counts, the results for `Cc1ccc(-c2nc3[nH]ncc3c3nc(C(C)C)nn23)o1` [Compound 121, 7-(5-methylfuran-2-yl)-4-propan-2-yl-3,5,6,8,10,11-hexazatricyclo[7.3.0.0^2,6]dodeca-1(9),2,4,7,11-pentaene] are below 10 nM and 10 to 100 nM.
The like results for `CC(=O)Nc1cc2nc(C3CNC3)nn2c(-c2ccco2)n1` [Compound 122, N-[2-(azetidin-3-yl)-5-(furan-2-yl)-[1,2,4]triazolo[1,5-c]pyrimidin-7-yl]acetamide] were, in that order, 100 to 1000 nM and above 1000 nM.
The like results for `O=C(Nc1cc2nc(C3CNC3)nn2c(-c2ccco2)n1)C1CC1` [Compound 123, N-[2-(azetidin-3-yl)-5-(furan-2-yl)-[1,2,4]triazolo[1,5-c]pyrimidin-7-yl]cyclopropanecarboxamide] were, in that order, 10 to 100 nM and above 1000 nM.
For the compound `Cc1nc2cc(NC(=O)OC(C)(C)C)nc(-c3ccc(S(=O)(=O)O)cc3)n2n1` [Compound 124, 4-[2-methyl-7-[(2-methylpropan-2-yl)oxycarbonylamino]-[1,2,4]triazolo[1,5-c]pyrimidin-5-yl]benzenesulfonic acid], the IC50 in experiment [1] was 100 to 1000 nM; in experiment [2], above 1000 nM.
On the same counts, the results for `Cc1nc2cc(NC(=O)C3CC3)nc(-c3ccc(S(=O)(=O)O)cc3)n2n1` [Compound 125, 4-[7-(cyclopropanecarbonylamino)-2-methyl-[1,2,4]triazolo[1,5-c]pyrimidin-5-yl]benzenesulfonic acid] are above 1000 nM and above 1000 nM.
The like results for `CC(=O)Nc1cc2nc(C(F)F)nn2c(-c2ccc(C)o2)n1` [Compound 126, N-[2-(difluoromethyl)-5-(5-methylfuran-2-yl)-[1,2,4]triazolo[1,5-c]pyrimidin-7-yl]acetamide] were, in that order, below 10 nM and below 10 nM.
On the same counts, the results for `CC(=O)Nc1cc2nc(CF)nn2c(-c2ccc(C)o2)n1` [Compound 127, N-[2-(fluoromethyl)-5-(5-methylfuran-2-yl)-[1,2,4]triazolo[1,5-c]pyrimidin-7-yl]acetamide] are below 10 nM and below 10 nM.
In the case of `Cc1nc2cc(NC(=O)C3CC3)nc(-c3ccc(F)c(F)c3)n2n1` [Compound 128, N-[5-(3,4-difluorophenyl)-2-methyl-[1,2,4]triazolo[1,5-c]pyrimidin-7-yl]cyclopropanecarboxamide], the IC50 is 10 to 100 nM in experiment [1] and 100 to 1000 nM in experiment [2].
The like results for `CC(=O)Nc1cc2nc(C)nn2c(-c2ccc(F)c(F)c2)n1` [Compound 129, N-[5-(3,4-difluorophenyl)-2-methyl-[1,2,4]triazolo[1,5-c]pyrimidin-7-yl]acetamide] were, in that order, 10 to 100 nM and above 1000 nM.
The like results for `Cc1nc2cc(N)nc(-c3ccc(F)c(F)c3)n2n1` [Compound 130, 5-(3,4-difluorophenyl)-2-methyl-[1,2,4]triazolo[1,5-c]pyrimidin-7-amine] were, in that order, 10 to 100 nM and 100 to 1000 nM.
`Cc1nc2cc(NC(=O)C3CC3)nc(-c3cccc(F)c3)n2n1` [Compound 131, N-[5-(3-fluorophenyl)-2-methyl-[1,2,4]triazolo[1,5-c]pyrimidin-7-yl]cyclopropanecarboxamide]: the 50% inhibitory concentration (IC50) in experiment [1] is below 10 nM; in experiment [2], 10 to 100 nM.
As to `CC(=O)Nc1cc2nc(C)nn2c(-c2cccc(F)c2)n1` [Compound 132, N-[5-(3-fluorophenyl)-2-methyl-[1,2,4]triazolo[1,5-c]pyrimidin-7-yl]acetamide], the IC50 in experiment [1] lay in the range of 10 to 100 nM; in experiment [2], 100 to 1000 nM.
The like results for `CC(=O)Nc1cc2nc(C(F)F)nn2c(-c2ccco2)n1` [Compound 133, N-[2-(difluoromethyl)-5-(furan-2-yl)-[1,2,4]triazolo[1,5-c]pyrimidin-7-yl]acetamide] were, in that order, below 10 nM and below 10 nM.
On the same counts, the results for `Cc1nc2c3cc(C(C)(C)O)[nH]c3nc(-c3ccc(C)o3)n2n1` [Compound 134, 2-[4-methyl-7-(5-methylfuran-2-yl)-3,5,6,8,10-pentazatricyclo[7.3.0.0^2,6]dodeca-1(9),2,4,7,11-pentaen-11-yl]propan-2-ol] are below 10 nM and below 10 nM.
On the same counts, the results for `CN1CC(c2nc3cc(NC(=O)C4CC4)nc(-c4ccco4)n3n2)C1` [Compound 135, N-[5-(furan-2-yl)-2-(1-methylazetidin-3-yl)-[1,2,4]triazolo[1,5-c]pyrimidin-7-yl]cyclopropanecarboxamide] are below 10 nM and above 1000 nM.
For the compound `Cc1nc2c3cccnc3nc(-c3ccc(C)o3)n2n1` [Compound 136, 4-methyl-7-(5-methylfuran-2-yl)-3,5,6,8,10-pentazatricyclo[7.4.0.0^2,6]trideca-1(9),2,4,7,10,12-hexaene], the IC50 in experiment [1] and in experiment [2] was above 1000 nM in each case.
Take `Cc1nc2c3cccnc3nc(-c3ccco3)n2n1` [Compound 137, 7-(furan-2-yl)-4-methyl-3,5,6,8,10-pentazatricyclo[7.4.0.0^2,6]trideca-1(9),2,4,7,10,12-hexaene]: the half-inhibitory concentration (IC50) in experiment [1] and in experiment [2] was above 1000 nM each time.
Regarding `Nc1nc(-c2ccccc2)n2nc(CF)nc2c1Cl` [Compound 138, 8-chloro-2-(fluoromethyl)-5-phenyl-[1,2,4]triazolo[1,5-c]pyrimidin-7-amine], the concentration for half-maximal inhibition (IC50) is below 10 nM in experiment [1] and 10 to 100 nM in experiment [2].

One may read the IC50 as the midpoint of a concentration-inhibition curve.
